Results taken from ChEMBL document CHEMBL4765279, “Discovery of a novel series of imidazo[1',2':1,6]pyrido[2,3-d]pyrimidin derivatives as potent cyclin-dependent kinase 4/6 inhibitors” (Eur J Med Chem, 2020).

Key:
[1] = Intrinsic clearance in human liver microsomes at 1 uM preincubated for 10 mins followed by NADPH addition and measured after 1 hr by LC-MS/MS analysis; type: ADME, Microsome; conditions: time 70 min, read-out: CLH
CYP3A4 = CYP3A4 (Homo sapiens, UniProt P08684); experiment: Inhibition of CYP3A4 in human liver microsomes at 10 uM measured after 20 mins in presence of NADPH by LC-MS/MS analysis relative to control; type: ADME
Cytochrome P450 3A4 = Cytochrome P450 3A4 (Homo sapiens, UniProt P08684); experiment: Time-dependent inhibition of CYP3A4 in human liver microsomes at 10 uM in presence of NADPH by LC-MS/MS analysis; type: ADME
Cytochrome P450 1A2 = target: T1, Cytochrome P450 1A2 (Homo sapiens, UniProt P05177); experiment: Time-dependent inhibition of CYP1A2 in human liver microsomes at 10 uM in presence of NADPH by LC-MS/MS analysis; type: ADME
T1 sequence (P05177 whole entry): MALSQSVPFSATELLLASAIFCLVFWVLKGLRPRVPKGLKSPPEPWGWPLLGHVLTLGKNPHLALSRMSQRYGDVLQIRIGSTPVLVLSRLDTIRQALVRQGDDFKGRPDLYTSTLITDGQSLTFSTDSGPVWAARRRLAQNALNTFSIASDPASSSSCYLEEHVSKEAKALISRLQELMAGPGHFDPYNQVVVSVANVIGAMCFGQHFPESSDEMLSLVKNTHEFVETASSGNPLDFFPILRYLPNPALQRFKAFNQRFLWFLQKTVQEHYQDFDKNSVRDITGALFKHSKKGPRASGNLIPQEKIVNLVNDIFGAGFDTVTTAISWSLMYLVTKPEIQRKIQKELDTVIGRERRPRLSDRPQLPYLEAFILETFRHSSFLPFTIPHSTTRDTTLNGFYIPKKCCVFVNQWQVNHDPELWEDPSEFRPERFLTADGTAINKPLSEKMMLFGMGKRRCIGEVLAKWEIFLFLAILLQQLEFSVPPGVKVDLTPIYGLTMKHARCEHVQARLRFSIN

[2] = Half life in Sprague-Dawley rat at 6 mg/kg, po by LC-MS/MS analysis; type: ADME, organism-based; conditions: in vivo
COLO 205 [3] = experiment: Antitumor activity against human COLO 205 cells xenografted in BALB/c mouse assessed as tumor growth inhibition at 30 mg/kg, po q3d for 11 days relative to control; type: functional; conditions: COLO 205, po, time 11 day, read-out: TGI
CYP1A2 = target: T2, CYP1A2 (Homo sapiens, UniProt P05177); experiment: Inhibition of CYP1A2 in human liver microsomes at 10 uM measured after 20 mins in presence of NADPH by LC-MS/MS analysis relative to control; type: ADME
T2 sequence (P05177 whole entry): T1 sequence (P05177 whole entry)

COLO 205 [4] = experiment: Antitumor activity against human COLO 205 cells xenografted in BALB/c mouse assessed as tumor growth at 3 mg/kg, po q3d for 11 days measured post last dose relative to control; type: functional; conditions: time 11 day
[5] = Volume of distribution at steady state in BALB/c mouse at 3 mg/kg, iv by LC-MS/MS analysis; type: ADME, organism-based; conditions: in vivo, read-out: Vdss
COLO 205 [6] = experiment: Antitumor activity against human COLO 205 cells xenografted in po dosed BALB/c mouse assessed as tumor growth inhibition administered once daily or every three days for 11 days; type: functional, organism-based; conditions: time 11.0 day
COLO 205 [7] = experiment: Cell cycle arrest in human COLO 205 cells assessed as accumulation at G0/G1 phase at 200 nM measured after 24 hrs by propidium iodide staining based flow cytometry relative to control; type: functional

Chain of Cytochrome P450 3A4 (P08684 whole entry): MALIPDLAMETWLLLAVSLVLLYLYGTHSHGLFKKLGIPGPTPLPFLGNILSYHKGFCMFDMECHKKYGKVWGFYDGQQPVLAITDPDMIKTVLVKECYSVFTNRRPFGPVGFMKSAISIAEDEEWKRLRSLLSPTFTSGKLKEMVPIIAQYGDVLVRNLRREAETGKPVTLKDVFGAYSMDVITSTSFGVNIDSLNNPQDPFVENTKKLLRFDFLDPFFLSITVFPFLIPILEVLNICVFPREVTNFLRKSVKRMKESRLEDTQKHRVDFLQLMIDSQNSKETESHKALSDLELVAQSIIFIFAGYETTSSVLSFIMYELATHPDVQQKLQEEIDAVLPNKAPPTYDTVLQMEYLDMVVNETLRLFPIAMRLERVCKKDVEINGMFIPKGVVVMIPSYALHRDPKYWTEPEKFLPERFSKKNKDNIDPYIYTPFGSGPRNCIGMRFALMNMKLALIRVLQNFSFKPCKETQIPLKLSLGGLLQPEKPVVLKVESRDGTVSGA
Chain of CYP3A4 (P08684 whole entry): as above

In the case of `CC(=O)c1c(C)c2cnc(Nc3ccc(N4CCNCC4)cc3)nc2n2cc(C(C)C)nc12`, the microsomal CLint at 1 µM [1] is reported as 6 µL/min/mg, the inhibition at […], 10 µM (CYP3A4) is reported as 8% and the TDI (Cytochrome P450 3A4) is reported as “Not Active”. The TDI (Cytochrome P450 1A2) was “Not Active”, the half-life [2] was 4.96 h and the inhibition in vivo at 30 mg/kg (COLO 205 [3]) was 85%. For the same compound, the inhibition at […], 10 µM (CYP1A2) was 17%, the T/C (COLO 205 [4]) was 52% and the Vd [5] was 46.5 L/kg. For the same compound, the TGI (COLO 205 [6]) was “Dose-dependent effect” and the Activity (COLO 205 [7]) was 94.2%.
